Experimental data: patent US6746850B2 (priority 2000, dated 2004)
Several values for one entry are separate records, joined by “and”; a condition that tells them apart may be missing. Equal entries are not always repeated.

Legend:
AChE [1] = molecular target: T1, AChE (Cavia porcellus, UniProt D3YE96); conditions: guinea pig, in vivo
AChE [2] = molecular target: T1, AChE; assay type: biochemical, Hartley guinea pig
BChE [3] = molecular target: T2, BChE (Cavia porcellus, UniProt H0V4F8); assay type: biochemical, Hartley guinea pig
BChE [4] = molecular target: T2, BChE; assay type: biochemical, Hartley guinea pig; remark: listed apart in the source
AChE [5] = molecular target: AChE (Homo sapiens, UniProt P22303); assay type: biochemical
BChE [6] = molecular target: BChE (Homo sapiens, UniProt P06276); assay type: biochemical
AChE [7] = molecular target: AChE (Macaca mulatta, UniProt A0A5F7ZPE9); assay type: biochemical, Rhesus monkey
BChE [8] = assay type: biochemical, Rhesus monkey
AChE [9] = molecular target: AChE (Rattus norvegicus, UniProt P37136); assay type: biochemical, Sprague Dawley rat
BChE [10] = molecular target: BChE (Rattus norvegicus, UniProt Q9JKC1); assay type: biochemical, Sprague Dawley rat
AChE [11] = molecular target: T1, AChE; assay type: biochemical, Hartley guinea pig; remark: listed apart in the source

CN(C)C(=O)Oc1ccc[n+](C)c1 [PB, pyridostigmine bromide]
peak inhibition time (AChE [1]): about 30 minutes

C[n+]1ccccc1C=NO [2-PAM]
effect on AChE (AChE [2]): inhibited
effect on BChE (BChE [3]): relatively unaffected

C/C=C1\[C@H]2C=C(C)C[C@]1(N)c1ccc(=O)[nH]c1C2 (racemic) [rac Hup-A, Racemic huperzine-A]
BChE Average (BChE [4]): 0.907 U/mL and 0.930 U/mL and 0.913 U/mL and 0.929 U/mL and 0.912 U/mL and 0.892 U/mL

CCC(=O)SCC[N+](C)(C)C.[I-] [PTC, propionylthiocholine iodide]
AChE Coefficient (sensitivity coefficient) Value (AChE [5]): 1071 mAbs/min/[blood]
BChE Coefficient (sensitivity coefficient) Value (BChE [6]): 1417 mAbs/min/[blood]
AChE Coefficient (sensitivity coefficient) Value (AChE [7]): 844 mAbs/min/[blood]
BChE Coefficient (sensitivity coefficient) Value (BChE [8]): 514 mAbs/min/[blood]
AChE Coefficient (sensitivity coefficient) Value (AChE [9]): 158 mAbs/min/[blood]
BChE Coefficient (sensitivity coefficient) Value (BChE [10]): 134 mAbs/min/[blood]

CCCC(=O)SCC[N+](C)(C)C.[I-] [BTC, butyrylthiocholine iodide]
AChE Coefficient (sensitivity coefficient) Value (AChE [5]): 82 mAbs/min/[blood]
BChE Coefficient (sensitivity coefficient) Value (BChE [6]): 1466 mAbs/min/[blood]
AChE Coefficient (sensitivity coefficient) Value (AChE [7]): 0 mAbs/min/[blood]
BChE Coefficient (sensitivity coefficient) Value (BChE [8]): 661 mAbs/min/[blood]
AChE Coefficient (sensitivity coefficient) Value (AChE [11]): 0 mAbs/min/[blood]
AChE Coefficient (sensitivity coefficient) Value (AChE [9]): 0 mAbs/min/[blood]
BChE Coefficient (sensitivity coefficient) Value (BChE [10]): 62 mAbs/min/[blood]
